Usually IC50 stands for the concentration that gives 50% inhibition. Higher therefore signals lower potency.

The values that follow come from patent US9505780B2, “Thienopyranones as kinase and epigenetic inhibitors” (SignalRx Pharmaceuticals, Inc., priority 2014, dated 2016).

For assay [1], the system named is SKNBE (2) cells. The experiment in a line: Western blot of p-AKT and N-MYC in SKNBE(2) cells. The assay is classed as cell-based, human. As to conditions: 24 hrs treatment, IGF stimulated. As for the experimental part:
Cells were stimulated with 50 ng/ml IGF for 30 min and used for lysate preparation. Proteins were quantitated by the BCA protein assay (Pierce). Equal amounts of protein were resolved by polyacrylamide gels, transferred to nitrocellulose membrane and probed by Western blot with the following primary antibodies: p-AKT(Ser473), API (Cell Signaling Technologies), N-MYC, CyclinD1 and β-actin (Santa Cruz Biotechnology).
(Immunoblotting shows a protein as a band on a membrane.)

Assay [2] deals with BRD4 (Homo sapiens, UniProt O60885). The assay can be described thus: BRD4 inhibition assay (region not distinguished). To be noted: for BRD4 inhibition: BRD4 regions 1 and 2. The assay is classed as biochemical.
Assay [3] has as its target PI3Kδ (Homo sapiens (Human), UniProt O00329). The assay can be described thus: PI3K delta isoform inhibition. The assay is classed as biochemical. The source says: Inhibitory activity can be determined routinely using known methods and also front commercial vendors offering this service for kinases and bromodomain proteins. […] In vivo, PI3K inhibition can be determined from target tissue biopsies by standard tissue processing to disrupt cells and then performing Western Blot analysis to determine the presence or absence of pAKT (substrate of PI3K) relative to a control sample. The activity of a compound of the invention as an inhibitor of a bromodomain-containing protein, such as a BET protein, such as BRD2, BRD3, BRD4, and/or BRDT, or an isoform or mutant thereof may be determined in vitro, in vivo, or in a cell line. In vitro assays include assays that determine inhibition of bromodomain-containing proteins. Alternatively, inhibitor binding may be determined by running a competition experiment where a provided compound is incubated with a bromodomain-containing protein, such as a BET protein bound to known ligands, labeled or unlabeled. For example, bromodomain inhibition can be determined in vitro using Alpha Screen Technology (http://www.reactionbiology.com/webapps/site/NewsPDFs/Bromodomain%20Assay%20Platform%20for%20Drug%/20Screening%20and%20Discovery.pdf). In vivo bromodomain inhibition can be determined indirectly by evaluating the amount of protect present of proteins whose genes' transcription is influenced or controlled by the bromodomain protein, for example, the MYCN protein transcription is controlled by BRD4 (J. E. Delmore et al., Cell 2011, 146, 904-917; A. Puissant, Cancer Discov. 2013, 3, 308-323). Bromodomain inhibition may also be predicted by in silico modeling as described below in the Examples.
Several TP Scaffold compounds (structures shown in FIG. 2 and Table 3) were tested for inhibition activity against isoforms of PI3K (alpha, beta, gamma, and delta isoforms) and the bromodomain protein BRD4 at regions 1 (BRD4-1) and 2 (BRD4-2).

The target of assay [4] is BRD4-2 (Homo sapiens (Human), UniProt O60885). The experiment in a line: BRD4 region 2 (BRD4-2) inhibition. The assay is classed as biochemical.
The target of assay [5] is BRD4-1 (Homo sapiens (Human), UniProt O60885). The assay can be described thus: BRD4 region 1 (BRD4-1) inhibition. The assay is classed as biochemical.
Assay [6] addresses PI3Kβ (Homo sapiens (Human), UniProt P42338). The assay can be described thus: PI3K beta isoform inhibition. The assay is classed as biochemical.
The target of assay [7] is PI3Kγ (Homo sapiens (Human), UniProt P48736). The experiment in a line: PI3K gamma isoform inhibition. The assay is classed as biochemical.
Chain of PI3Kγ (P48736 whole entry, canonical isoform): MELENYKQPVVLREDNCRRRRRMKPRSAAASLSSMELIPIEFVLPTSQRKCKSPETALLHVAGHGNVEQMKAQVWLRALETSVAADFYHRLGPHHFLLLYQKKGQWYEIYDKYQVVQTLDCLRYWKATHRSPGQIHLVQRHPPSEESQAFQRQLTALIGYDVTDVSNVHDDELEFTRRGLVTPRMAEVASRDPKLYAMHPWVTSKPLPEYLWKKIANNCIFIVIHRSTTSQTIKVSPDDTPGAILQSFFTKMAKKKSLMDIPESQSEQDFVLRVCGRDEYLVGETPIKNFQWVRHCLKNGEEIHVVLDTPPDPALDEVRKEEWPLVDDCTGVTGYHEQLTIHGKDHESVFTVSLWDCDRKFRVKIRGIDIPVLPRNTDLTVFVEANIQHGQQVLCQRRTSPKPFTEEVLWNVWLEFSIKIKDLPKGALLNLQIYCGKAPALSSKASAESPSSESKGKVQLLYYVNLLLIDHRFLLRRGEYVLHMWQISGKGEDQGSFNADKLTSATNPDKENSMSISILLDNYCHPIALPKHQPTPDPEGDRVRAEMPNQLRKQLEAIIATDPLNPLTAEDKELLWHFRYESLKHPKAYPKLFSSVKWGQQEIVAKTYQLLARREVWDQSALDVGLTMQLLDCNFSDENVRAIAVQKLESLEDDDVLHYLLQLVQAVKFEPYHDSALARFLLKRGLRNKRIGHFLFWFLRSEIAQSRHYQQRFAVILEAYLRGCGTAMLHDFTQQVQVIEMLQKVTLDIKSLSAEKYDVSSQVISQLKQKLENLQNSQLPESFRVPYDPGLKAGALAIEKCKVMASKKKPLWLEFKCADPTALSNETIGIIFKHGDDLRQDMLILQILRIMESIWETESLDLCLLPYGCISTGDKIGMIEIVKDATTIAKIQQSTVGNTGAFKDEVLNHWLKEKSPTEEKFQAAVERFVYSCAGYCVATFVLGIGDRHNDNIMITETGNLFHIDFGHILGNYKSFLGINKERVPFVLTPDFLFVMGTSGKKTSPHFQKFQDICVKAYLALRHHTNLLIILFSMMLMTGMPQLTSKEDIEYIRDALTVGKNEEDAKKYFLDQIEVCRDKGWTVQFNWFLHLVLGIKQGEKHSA
Assay [8] addresses PI3Kα (Homo sapiens (Human), UniProt P42336). The experiment in a line: PI3K alpha isoform inhibition. The assay is classed as biochemical.
Assay [9] has as its system HDAC. The assay can be described thus: HDAC inhibitory activity, commercially available kit. To be noted: for HDAC inhibitory activity: 1, 10, 50 μM. The assay is classed as biochemical.

Chain of PI3Kα (P42336 whole entry, canonical isoform): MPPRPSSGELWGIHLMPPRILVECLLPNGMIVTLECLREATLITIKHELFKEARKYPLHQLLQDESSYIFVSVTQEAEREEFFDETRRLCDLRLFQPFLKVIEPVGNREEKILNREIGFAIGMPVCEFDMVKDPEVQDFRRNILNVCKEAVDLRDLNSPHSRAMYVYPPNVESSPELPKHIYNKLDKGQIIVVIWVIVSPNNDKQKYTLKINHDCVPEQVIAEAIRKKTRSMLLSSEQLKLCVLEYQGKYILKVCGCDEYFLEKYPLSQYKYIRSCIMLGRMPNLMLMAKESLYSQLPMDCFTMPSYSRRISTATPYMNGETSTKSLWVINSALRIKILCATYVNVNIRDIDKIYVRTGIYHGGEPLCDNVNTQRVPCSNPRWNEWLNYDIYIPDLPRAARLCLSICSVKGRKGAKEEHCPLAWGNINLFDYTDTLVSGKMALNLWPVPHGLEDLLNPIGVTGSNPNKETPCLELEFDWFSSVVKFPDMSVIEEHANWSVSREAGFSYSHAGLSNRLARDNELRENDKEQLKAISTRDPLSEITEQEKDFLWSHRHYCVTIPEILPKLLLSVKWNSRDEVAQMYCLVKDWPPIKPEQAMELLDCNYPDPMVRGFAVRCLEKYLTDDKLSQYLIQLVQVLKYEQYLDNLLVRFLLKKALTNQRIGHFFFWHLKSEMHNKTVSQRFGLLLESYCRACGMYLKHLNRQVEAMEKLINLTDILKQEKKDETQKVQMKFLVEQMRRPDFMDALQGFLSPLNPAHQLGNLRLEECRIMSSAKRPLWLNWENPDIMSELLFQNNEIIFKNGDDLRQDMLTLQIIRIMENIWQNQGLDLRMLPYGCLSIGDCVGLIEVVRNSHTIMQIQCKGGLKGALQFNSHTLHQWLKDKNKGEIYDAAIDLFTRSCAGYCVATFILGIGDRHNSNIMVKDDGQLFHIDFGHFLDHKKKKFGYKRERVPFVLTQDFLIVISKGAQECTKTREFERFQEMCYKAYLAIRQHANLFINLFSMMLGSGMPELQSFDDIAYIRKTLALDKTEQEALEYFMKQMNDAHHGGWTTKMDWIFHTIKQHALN
Chain of PI3Kα (P27986 whole entry partner, canonical isoform): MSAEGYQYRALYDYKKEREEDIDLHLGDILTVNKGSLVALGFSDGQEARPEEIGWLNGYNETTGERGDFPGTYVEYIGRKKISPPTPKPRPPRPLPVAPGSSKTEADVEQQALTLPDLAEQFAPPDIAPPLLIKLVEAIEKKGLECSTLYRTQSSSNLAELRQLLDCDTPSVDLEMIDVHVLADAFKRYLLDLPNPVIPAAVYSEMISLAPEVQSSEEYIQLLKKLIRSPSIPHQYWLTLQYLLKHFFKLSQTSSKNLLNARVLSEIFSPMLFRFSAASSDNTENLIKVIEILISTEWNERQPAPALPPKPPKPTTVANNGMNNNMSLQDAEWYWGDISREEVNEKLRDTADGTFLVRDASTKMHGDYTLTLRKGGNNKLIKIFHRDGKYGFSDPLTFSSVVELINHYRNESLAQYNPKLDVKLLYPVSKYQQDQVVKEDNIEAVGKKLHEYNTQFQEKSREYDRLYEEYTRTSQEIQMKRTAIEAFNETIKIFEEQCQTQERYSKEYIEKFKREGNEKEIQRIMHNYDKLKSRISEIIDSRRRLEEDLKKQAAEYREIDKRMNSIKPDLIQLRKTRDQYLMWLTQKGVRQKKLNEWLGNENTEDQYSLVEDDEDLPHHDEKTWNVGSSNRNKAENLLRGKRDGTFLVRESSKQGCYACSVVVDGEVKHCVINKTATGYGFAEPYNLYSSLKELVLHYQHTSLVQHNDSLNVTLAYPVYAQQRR
Chain of PI3Kβ (P42338 whole entry, canonical isoform): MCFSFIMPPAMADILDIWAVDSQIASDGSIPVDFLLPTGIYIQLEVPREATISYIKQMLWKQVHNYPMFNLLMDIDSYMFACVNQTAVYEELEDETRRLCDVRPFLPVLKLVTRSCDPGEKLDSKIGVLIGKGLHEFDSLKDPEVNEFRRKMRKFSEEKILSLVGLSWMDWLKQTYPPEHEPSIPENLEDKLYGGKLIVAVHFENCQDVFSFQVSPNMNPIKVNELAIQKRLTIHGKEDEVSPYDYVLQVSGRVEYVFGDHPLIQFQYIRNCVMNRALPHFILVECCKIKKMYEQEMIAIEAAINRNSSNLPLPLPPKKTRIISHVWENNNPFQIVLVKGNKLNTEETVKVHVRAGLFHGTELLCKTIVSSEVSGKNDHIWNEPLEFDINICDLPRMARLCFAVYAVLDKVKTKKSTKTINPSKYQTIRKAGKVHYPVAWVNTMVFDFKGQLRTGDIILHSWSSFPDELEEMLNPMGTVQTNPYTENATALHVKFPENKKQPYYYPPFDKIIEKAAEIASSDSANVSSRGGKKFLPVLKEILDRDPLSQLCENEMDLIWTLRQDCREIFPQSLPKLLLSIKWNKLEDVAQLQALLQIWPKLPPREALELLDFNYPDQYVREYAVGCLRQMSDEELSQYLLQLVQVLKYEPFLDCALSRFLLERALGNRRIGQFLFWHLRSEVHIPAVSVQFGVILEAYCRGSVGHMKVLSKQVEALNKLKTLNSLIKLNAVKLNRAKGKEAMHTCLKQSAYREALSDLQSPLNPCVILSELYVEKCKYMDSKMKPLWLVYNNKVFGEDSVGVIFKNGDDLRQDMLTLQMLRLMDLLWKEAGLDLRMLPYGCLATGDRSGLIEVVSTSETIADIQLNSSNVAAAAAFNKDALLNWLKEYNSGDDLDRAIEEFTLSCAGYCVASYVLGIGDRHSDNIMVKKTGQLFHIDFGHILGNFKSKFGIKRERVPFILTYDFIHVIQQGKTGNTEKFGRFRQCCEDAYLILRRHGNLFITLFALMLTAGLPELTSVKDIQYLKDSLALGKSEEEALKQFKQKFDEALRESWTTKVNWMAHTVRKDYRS
Chain of PI3Kβ (P27986 whole entry partner, canonical isoform): as the sequence (P27986 whole entry partner, canonical isoform) above
Chain of PI3Kδ (O00329 whole entry, canonical isoform): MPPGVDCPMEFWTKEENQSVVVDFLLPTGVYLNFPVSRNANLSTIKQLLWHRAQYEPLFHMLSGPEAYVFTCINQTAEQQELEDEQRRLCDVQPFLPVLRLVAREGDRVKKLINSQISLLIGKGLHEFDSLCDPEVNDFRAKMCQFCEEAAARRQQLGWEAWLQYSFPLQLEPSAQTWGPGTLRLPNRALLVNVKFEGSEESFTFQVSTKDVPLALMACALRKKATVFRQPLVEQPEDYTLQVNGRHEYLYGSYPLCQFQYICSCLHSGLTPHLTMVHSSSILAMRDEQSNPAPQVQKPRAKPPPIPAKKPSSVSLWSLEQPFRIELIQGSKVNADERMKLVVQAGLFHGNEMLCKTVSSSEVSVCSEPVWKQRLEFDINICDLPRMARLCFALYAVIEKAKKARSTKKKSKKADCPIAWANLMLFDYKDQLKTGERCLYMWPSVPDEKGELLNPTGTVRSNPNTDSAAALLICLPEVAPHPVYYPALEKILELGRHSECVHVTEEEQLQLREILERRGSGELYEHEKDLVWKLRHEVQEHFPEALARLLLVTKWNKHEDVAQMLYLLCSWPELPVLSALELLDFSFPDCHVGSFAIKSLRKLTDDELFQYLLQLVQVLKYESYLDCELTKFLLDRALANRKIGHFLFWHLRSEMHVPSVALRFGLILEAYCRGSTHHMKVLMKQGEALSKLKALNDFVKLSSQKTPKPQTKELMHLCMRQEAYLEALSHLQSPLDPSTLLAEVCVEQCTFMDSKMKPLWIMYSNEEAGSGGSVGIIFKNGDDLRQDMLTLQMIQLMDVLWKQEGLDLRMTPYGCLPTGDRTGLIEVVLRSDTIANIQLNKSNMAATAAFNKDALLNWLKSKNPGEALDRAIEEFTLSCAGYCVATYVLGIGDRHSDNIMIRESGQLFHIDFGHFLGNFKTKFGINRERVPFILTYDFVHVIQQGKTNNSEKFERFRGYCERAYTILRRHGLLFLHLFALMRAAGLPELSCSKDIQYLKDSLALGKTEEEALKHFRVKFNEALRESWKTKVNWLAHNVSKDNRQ
Chain of PI3Kδ (P27986 whole entry partner, canonical isoform): as the sequence (P27986 whole entry partner, canonical isoform) above

Turning to `Cn1c(=O)n(-c2ccc(C(C)(C)C#N)cc2)c2c3cc(-c4cnc5ccccc5c4)ccc3ncc21` [BEZ235], the “pAKT, Western blot” value in assay [1] is recorded as “decreased pAKT”.

With `Nc1cc(C(F)(F)F)c(-c2cc(N3CCOCC3)nc(N3CCOCC3)n2)cn1` [BKM120], in assay [2], the “BRD4 inhibition” value is recorded as “no BRD4 inhibition”. In assay [1], the “pAKT, Western blot” value was “decreased pAKT”.

For `CC[C@H](Nc1ncnc2[nH]cnc12)c1nc2cccc(F)c2c(=O)n1-c1ccccc1` [CAL101], in [2], the IC50 is greater than 50 µM and the “BRD4 inhibition” value was “no BRD4 inhibition”. Moreover, the “pAKT, Western blot” value in assay [1] is “decreased pAKT”.

Take `O=c1cc(N2CCOCC2)oc2c(-c3ccccc3)csc12` [Cmpd 6]: the IC50 was found to be 0.784 µM in [3]; 3.45 µM in assay [4]; 2.17 µM in assay [5]; 0.378 µM in assay [6]; 1.57 µM in assay [7].

As for `O=c1cc(N2CCOCC2)oc2ccsc12` [Cmpd 10], the IC50 in [3] was greater than 50 µM; in assay [4], greater than 50 µM; in [5], greater than 50 µM; in assay [6] it was 9.25 µM; in assay [7], greater than 50 µM; in assay [8] it was 7.16 µM.

Take `Nc1cccc(-c2csc3c(=O)cc(N4CCOCC4)oc23)c1` [Cmpd 11, 3-(3-Amino-phenyl)-5-morpholin-4-yl-thieno[3,2-b]pyran-7-one]: the IC50 in assay [3] was 9.81 µM; in assay [4] it was 1.74 µM; in assay [5], 0.843 µM; in assay [7] it was 6.3 µM.

Take `CCOC(=O)c1ccc(-c2csc3c(=O)cc(N4CCOCC4)oc23)cc1` [Cmpd 25]: the IC50 in assay [3] worked out at 0.027 µM; in assay [4], 0.628 µM; in assay [5] it was 0.277 µM; in [6], 1.75 µM; in [7], 1.17 µM.

With `COC(=O)c1ccc(-c2csc3c(=O)cc(N4CCOCC4)oc23)cc1` [Cmpd 44, methyl 4-(5-morpholino-7-oxo-7H-thieno[3,2-b]pyran-3-yl)benzoate], the IC50 in [3] came to 0.012 µM; in assay [4], 1.47 µM; in assay [5] it was 0.811 µM; in assay [6], 3.6 µM; in assay [7], 0.547 µM. Moreover, the “HDAC inhibitory activity” value in assay [9] is reported as “No inhibitor activity”. The “BRD4 inhibition” value in [2] was “showed activity”.

`O=C(O)c1ccc(-c2csc3c(=O)cc(N4CCOCC4)oc23)cc1` [Cmpd 100]: the IC50 came to 0.295 µM in assay [3]; 2.75 µM in assay [4]; 1.09 µM in assay [5]; 0.259 µM in assay [7]; 0.0552 µM in assay [8].

For `O=C(NO)c1ccc(-c2csc3c(=O)cc(N4CCOCC4)oc23)cc1` [Cmpd 118], the IC50 in [3] stood at 0.053 µM; in [4] it was 0.235 µM; in assay [5], 0.193 µM; in assay [7], 0.806 µM; in assay [8], 0.09 µM. For the same molecule, the “HDAC activity inhibited versus control” value was found to be 17% in assay [9] (1 μM), 25% in assay [9] (10 μM) and 41% in assay [9] (50 μM). In addition, the “HDAC inhibitory activity” value in [9] is on record as “significant HDAC inhibitory activity”.

As to `O=C(Nc1ccc(-c2csc3c(=O)cc(N4CCOCC4)oc23)cc1)c1ccncc1` [Cmpd 120], the IC50 in [3] worked out at 0.021 µM; in [4], 0.393 µM; in [5], 0.326 µM; in assay [7], 0.556 µM; in [8] it was 0.095 µM.

Take `O=C(Nc1ccc(-c2csc3c(=O)cc(N4CCOCC4)oc23)cc1)c1ccc(F)c(F)c1Nc1ccc(I)cc1F` [Cmpd 121]: the figures for the IC50 in assay [4], in [5] and in assay [8] were 2.31 µM, 0.255 µM and less than 10 µM, respectively.

Take `CC(C)(C)c1cc(NC(=O)Nc2cccc(-c3csc4c(=O)cc(N5CCOCC5)oc34)c2)no1` [Cmpd 122, 1-(5-tert-Butyl-isoxazol-3-yl)-3-[3-(5-morpholin-4-yl-7-oxo-7H-thieno[3,2-b]pyran-3-yl)-phenyl]-urea]: the IC50 in assay [3] was 1.35 µM; in assay [4], 4.88 µM; in assay [5] it was 2.57 µM; in assay [7], 8.65 µM; in [8], 0.95 µM.

On to `O=C(Nc1cccc(-c2csc3c(=O)cc(N4CCOCC4)oc23)c1)Nc1ccc(Cl)c(C(F)(F)F)c1` [Cmpd 123, 1-(4-Chloro-3-trifluoromethyl-phenyl)-3-[3-(5-morpholin-4-yl-7-oxo-7H-thieno[3,2-b]pyran-3-yl)-phenyl]-urea], for which the IC50 in [3] is 9.75 µM; in assay [4] it was greater than 50 µM; in [5], greater than 50 µM; in [7], greater than 16.7 µM; in [8], 7.67 µM.

On to `O=c1cc(N2CCSCC2)oc2c(-c3ccc4c(c3)OCCO4)csc12` [Cmpd 124, 3-(2,3-Dihydrobenzo[b][1,4]dioxan-6-yl)-5-thiomorpholino-7H-thieno[3,2-b]pyran-7-one], for which the IC50 in [3] turned out to be 0.48 µM; in assay [4] it was 2.79 µM; in assay [5] it was 0.519 µM; in assay [7], 4.63 µM; in [8], 1.58 µM.

With `O=c1cc(N2CCOCC2)oc2c(Br)csc12` [Cmpd 126, 3-Bromo-5-morpholin-4-yl-thieno[3,2-b]pyran-7-one], the IC50 was 1.48 µM in assay [3], greater than 50 µM in [4], greater than 50 µM in assay [5] and 2.2 µM in assay [7].

For `O=c1cc(N2CCSCC2)oc2c(Br)csc12` [Cmpd 127, 3-Bromo-5-thiomorpholino-7H-thieno[3,2-b]pyran-7-one], the IC50 in [3] was determined as 3.3 µM; in assay [4], 34.2 µM; in [5], 32.6 µM; in assay [7] it was 9.77 µM; in assay [8] it was 1.72 µM.

`O=c1cc(N2CCOCC2)oc2c(C#Cc3ccccc3)csc12` [Cmpd 128]: the IC50 in assay [4] stood at 10.7 µM; in assay [5], 4 µM.

With `O=c1cc(N2CCOCC2)oc2c(-c3ccn[nH]3)csc12` [Cmpd 129, 5-Morpholino-3-(2H-pyrazol-3-yl)-4-oxa-1-thia-7-Indenone], the IC50 in [4] was 9.41 µM; in [5], 2.23 µM.

For the molecule `Cn1ncc2ccc(-c3csc4c(=O)cc(N5CCOCC5)oc34)cc21` [Cmpd 130, 3-(1-Methyl-1H-indazol-6-yl)-5-morpholino-4-oxa-1-thia-7-Indenone], the IC50 came to 0.695 µM in assay [4] and 0.349 µM in assay [5].

Take `Cc1n[nH]c2cc(-c3csc4c(=O)cc(N5CCOCC5)oc34)ccc12` [Cmpd 131, 3-(3-Methyl-1H-indazol-6-yl)-5-morpholino-4-oxa-1-thia-7-Indenone]: the IC50 in [4] was 0.446 µM; in assay [5], 0.231 µM.

As to `CNC(=O)Nc1cccc(-c2csc3c(=O)cc(N4CCOCC4)oc23)c1` [Cmpd 133, 3-[m-(3-Methylureido)phenyl]-5-morpholino-4-oxa-1-thia-7-indenone], the half-inhibitory concentration (IC50) in assay [4] came out at 1.12 µM; in [5] it was 0.558 µM.

For the molecule `CN(C)C(=O)Nc1cccc(-c2csc3c(=O)cc(N4CCOCC4)oc23)c1` [Cmpd 134, 3-[m-(3-Dimethylureido)phenyl]-5-morpholino-4-oxa-1-thia-7-indenone], the IC50 in [4] is 1.85 µM; in [5], 0.662 µM.

`Cc1cccc(NC(=O)Nc2cccc(-c3csc4c(=O)cc(N5CCOCC5)oc34)c2)c1` [Cmpd 135, 5-Morpholino-3-{m-[3-(m-tolyl)ureido]phenyl}-4-oxa-1-thia-7-indenone]: the IC50 worked out at 1.27 µM in [4] and 0.646 µM in assay [5].

Regarding `O=C(Nc1cccc(-c2csc3c(=O)cc(N4CCOCC4)oc23)c1)Nc1cccc(C(F)(F)F)c1` [Cmpd 136], the IC50 worked out at 1.26 µM in [4] and 6.15 µM in assay [5].

Regarding `Cc1ccc(C)c(NC(=O)Nc2cccc(-c3csc4c(=O)cc(N5CCOCC5)oc34)c2)c1` [Cmpd 137, 5-Morpholino-3-{m-[3-(2,5-xylyl)ureido]phenyl}-4-oxa-1-thia-7-indenone], the figures for the IC50 in [4] and in [5] were 1.26 µM and 0.748 µM, respectively.
